The subject of this assay is nude mice, LX-1 lung xenograft intrarenal, tumor weight T/C. The assay is described as follows: NCI In Vivo Anticancer Drug Screen. Data for tumor model Human Lung LX-1 Xenograft (intrarenal inoculation) in NU/NU Swiss (nude) mice. The note with it: endpoint: mean tumor weight change, higher = larger tumour. An outline of the steps:
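Antitumor effect is expressed as a ratio: the mean tumor measurement of the drug-treated group relative to that of the vehicle-dosed control group.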

[1] abbreviates: dose: 50.0 mg/kg/injection, schedule: Q04DX003 (sc), vehicle: saline with Tween-80.
Setting [2] is: dose: 100.0 mg/kg/injection, schedule: Q04DX003 (sc), vehicle: saline with Tween-80.
[3] abbreviates: dose: 75.0 mg/kg/injection, schedule: Q04DX003 (sc), vehicle: Klucel (hydroxypropylcellulose) (HPC).
[4] abbreviates: dose: 150.0 mg/kg/injection, schedule: Q04DX003 (sc), vehicle: Klucel (hydroxypropylcellulose) (HPC).

From PubChem BioAssay AID264 (DTP/NCI, 2004) come the findings set out here.

Records with an inconclusive call do not appear.

As to `CC(=O)OCC1OC(n2ccc(N)nc2=O)C(OC(C)=O)C1OC(C)=O` (stereo not given), the T/C by setting is: (dose: 300.0 mg/kg/injection, schedule: Q04DX003 (sc), vehicle: suspension in saline) 156 % of control; (dose: 600.0 mg/kg/injection, schedule: Q04DX003 (sc), vehicle: suspension in saline) 84 % of control; (dose: 1200.0 mg/kg/injection, schedule: Q04DX003 (sc), vehicle: suspension in saline) 23 % of control; (dose: 2400.0 mg/kg/injection, schedule: Q04DX003 (sc), vehicle: suspension in saline) 94 % of control.

`O=c1ncccn1[C@@H]1O[C@H](CO)[C@H](O)C1O` (stereo not given in full): the T/C reads like this: (dose: 300.0 mg/kg/injection, schedule: Q04DX003 (sc), vehicle: saline) 100 % of control; (dose: 600.0 mg/kg/injection, schedule: Q04DX003 (sc), vehicle: saline) 56 % of control; (dose: 1200.0 mg/kg/injection, schedule: Q04DX003 (sc), vehicle: saline) 55 % of control; (dose: 2400.0 mg/kg/injection, schedule: Q04DX003 (sc), vehicle: saline) 47 % of control.

With `Nc1cc2c3c(cccc3c1)C(=O)N(CCN1CCCC1)C2=O`, the T/C under setting [1] was 42 % of control; the T/C under setting [2] is 79 % of control; the T/C (dose: 200.0 mg/kg/injection, schedule: Q04DX003 (sc), vehicle: saline with Tween-80) is 108 % of control; the T/C (dose: 400.0 mg/kg/injection, schedule: Q04DX003 (sc), vehicle: saline with Tween-80) was 46 % of control.

Take `CN=C(N)N/N=C(\C)c1ccc2c(c1)Cc1cc(/C(C)=N/NC(N)=NC)ccc1-2`: the T/C runs as follows: (dose: 12.5 mg/kg/injection, schedule: Q04DX003 (sc), vehicle: saline with Tween-80) 99 % of control; (dose: 25.0 mg/kg/injection, schedule: Q04DX003 (sc), vehicle: saline with Tween-80) 90 % of control; under setting [1], 67 % of control; under setting [2], 69 % of control.

In the case of `Nc1ncnc2c1nnn2C1OC(CO)C(O)C1O` (stereo not given), the T/C runs as follows: (dose: 18.75 mg/kg/injection, schedule: Q04DX003 (sc), vehicle: Klucel (hydroxypropylcellulose) (HPC)) 102 % of control; (dose: 37.5 mg/kg/injection, schedule: Q04DX003 (sc), vehicle: Klucel (hydroxypropylcellulose) (HPC)) 96 % of control; under setting [3], 103 % of control; under setting [4], 80 % of control.

Consider `Cc1ccc2c(c1)C(=O)N(CC[P+](c1ccccc1)(c1ccccc1)c1ccccc1)C2=O`, for which the T/C was 51 % of control (dose: 25.0 mg/kg/injection, schedule: Q01DX010 (sc), vehicle: Klucel (hydroxypropylcellulose) (HPC)) and 37 % of control (dose: 50.0 mg/kg/injection, schedule: Q01DX010 (sc), vehicle: Klucel (hydroxypropylcellulose) (HPC)).

Take `Ic1ncnc2c1ncn2C1CCCO1` (stereo not given): the T/C (dose: 200.0 mg/kg/injection, schedule: Q04DX003 (sc), vehicle: Klucel (hydroxypropylcellulose) (HPC)) was 168 % of control; the T/C (dose: 800.0 mg/kg/injection, schedule: Q04DX003 (sc), vehicle: Klucel (hydroxypropylcellulose) (HPC)) is 107 % of control; the T/C (dose: 1600.0 mg/kg/injection, schedule: Q04DX003 (sc), vehicle: Klucel (hydroxypropylcellulose) (HPC)) is 41 % of control.

As for `OC1CCCC2CCCNC12` (stereo not given), the T/C runs as follows: (dose: 37.5 mg/kg/injection, schedule: Q04DX003 (sc), vehicle: saline with Tween-80) 81 % of control; (dose: 75.0 mg/kg/injection, schedule: Q04DX003 (sc), vehicle: saline with Tween-80) 93 % of control; (dose: 150.0 mg/kg/injection, schedule: Q04DX003 (sc), vehicle: saline with Tween-80) 75 % of control.

On to `Nc1nc([Se])c2ncn(C3OC(CO)C(O)C3O)c2n1` (stereo not given), for which the T/C reads like this: (dose: 1.0 mg/kg/injection, schedule: Q01DX010 (sc), vehicle: saline) 264 % of control; (dose: 2.0 mg/kg/injection, schedule: Q01DX010 (ip), vehicle: saline) 46 % of control; (dose: 4.0 mg/kg/injection, schedule: Q01DX010 (ip), vehicle: saline) 31 % of control; (dose: 6.66 mg/kg/injection, schedule: Q04DX003 (ip), vehicle: saline) 82 % of control; (dose: 6.66 mg/kg/injection, schedule: Q04DX003 (sc), vehicle: saline) 45 % of control; (dose: 8.0 mg/kg/injection, schedule: Q01DX010 (ip), vehicle: saline) 41 % of control. Also, the T/C is 121 % of control (dose: 13.33 mg/kg/injection, schedule: Q04DX003 (ip), vehicle: saline); 62 % of control (dose: 13.33 mg/kg/injection, schedule: Q04DX003 (sc), vehicle: saline); 61 % of control (dose: 16.0 mg/kg/injection, schedule: Q01DX010 (ip), vehicle: saline); 35 % of control (dose: 16.0 mg/kg/injection, schedule: Q01DX010 (sc), vehicle: saline); 91 % of control (dose: 26.65 mg/kg/injection, schedule: Q04DX003 (ip), vehicle: saline); 95 % of control (dose: 26.65 mg/kg/injection, schedule: Q04DX003 (sc), vehicle: saline). Further, the T/C (dose: 53.3 mg/kg/injection, schedule: Q04DX003 (ip), vehicle: saline) is 44 % of control.

For `COc1ccc(CC2C(=O)NC(C)C(=O)N(C)C3Cc4ccc(cc4)Oc4cc(ccc4O)CC(C(=O)NC(C)C(=O)NC(C)C(=O)N2C)N(C)C3=O)cc1` (stereo not given), the T/C (dose: 4.0 mg/kg/injection, schedule: Q04DX003 (sc), vehicle: saline with Tween-80) is 61 % of control; the T/C (dose: 8.0 mg/kg/injection, schedule: Q04DX003 (sc), vehicle: saline with Tween-80) was 25 % of control; the T/C (dose: 16.0 mg/kg/injection, schedule: Q04DX003 (sc), vehicle: saline with Tween-80) is 34 % of control; the T/C (dose: 32.0 mg/kg/injection, schedule: Q04DX003 (sc), vehicle: saline with Tween-80) is 27 % of control.

As to `CC1(O)CC23CC(O)C4(O)C(CC(O)C4(C)C)C(C)(O)C2CCC1C3O` (stereo not given), the T/C (dose: 0.25 mg/kg/injection, schedule: Q04DX003 (sc), vehicle: Klucel (hydroxypropylcellulose) (HPC)) is 78 % of control; the T/C (dose: 0.5 mg/kg/injection, schedule: Q04DX003 (sc), vehicle: Klucel (hydroxypropylcellulose) (HPC)) was 77 % of control; the T/C (dose: 1.0 mg/kg/injection, schedule: Q04DX003 (sc), vehicle: Klucel (hydroxypropylcellulose) (HPC)) was 58 % of control.

For `CCCCCCCCCCCC(=O)NC1CC(O[C@H]2C[C@](O)(C(=O)CO)Cc3c(O)c4c(c(O)c32)C(=O)c2c(OC)cccc2C4=O)OC(C)C1O` (stereo not given in full), the T/C is 5 % of control (dose: 300.0 mg/kg/injection, schedule: Q04DX003 (sc), vehicle: water); 76 % of control (dose: 600.0 mg/kg/injection, schedule: Q04DX003 (sc), vehicle: water); 55 % of control (dose: 1200.0 mg/kg/injection, schedule: Q04DX003 (sc), vehicle: water); 118 % of control (dose: 2400.0 mg/kg/injection, schedule: Q04DX003 (sc), vehicle: water).

Take `N/C(=N\OC(=O)Nc1ccc(CSc2ccc(Cl)cc2)o1)c1ccccn1`: the T/C is, setting by setting: under setting [3], 69 % of control; under setting [4], 66 % of control; (dose: 300.0 mg/kg/injection, schedule: Q04DX003 (sc), vehicle: Klucel (hydroxypropylcellulose) (HPC)) 180 % of control.

For `COc1c(O)c2c(c3cc(C(=O)N4CCc5c4c(O)c(OC)c4[nH]c(C(=O)N6CC7CC78C6=CC(=O)c6[nH]cc(C)c68)cc54)[nH]c13)CCN2C(N)=O` (stereo not given), the T/C by setting is: (dose: 6.25 micrograms/kg/injection, schedule: Q01DX010 (sc), vehicle: DMSO) 121 % of control; (dose: 12.5 micrograms/kg/injection, schedule: Q01DX010 (sc), vehicle: DMSO) 107 % of control; (dose: 25.0 micrograms/kg/injection, schedule: Q01DX010 (sc), vehicle: DMSO) 68 % of control; (dose: 50.0 micrograms/kg/injection, schedule: Q01DX010 (sc), vehicle: DMSO) 66 % of control.

With `O=C1C=CN(C2OC(CO)C(O)C2O)C(=O)C1` (stereo not given), the T/C by setting is: (dose: 50.0 mg/kg/injection, schedule: Q01DX010 (sc), vehicle: saline) 65 % of control; (dose: 100.0 mg/kg/injection, schedule: Q01DX010 (sc), vehicle: saline) 21 % of control.

Take `C1=CCOCOC1`: the T/C (dose: 50.0 mg/kg/injection, schedule: Q01DX010 (sc), vehicle: saline with Tween-80) is 83 % of control; the T/C (dose: 100.0 mg/kg/injection, schedule: Q01DX010 (sc), vehicle: saline with Tween-80) is 105 % of control; the T/C (dose: 200.0 mg/kg/injection, schedule: Q01DX010 (sc), vehicle: saline with Tween-80) was 81 % of control; the T/C (dose: 400.0 mg/kg/injection, schedule: Q01DX010 (sc), vehicle: saline with Tween-80) is 46 % of control.
